Measurements reported in the supplement of paper PMC10307832.

Columns and labels:
Experiment in all cases: relative viability (nuclei count vs DMSO), 5 days (fraction); higher = more cells survive
A-427 = test system: A-427
Summary of the method: (§1)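 One day after seeding in 1536-well plates, lung cancer cell lines were dosed by pin tool. Dosing was either single-drug or a fixed anchor-drug dose plus five library-drug doses (not always all listed) in √10 steps. After 5 days, nuclei were stained in one fix-and-stain step and counted on 4× images, and relative viability is the nuclei count of treated wells over that of vehicle wells, given as the median of duplicate plates.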

COR-L 105 = test system: COR-L 105
Summary of the method: as §1

EPLC-272H = test system: EPLC-272H
Summary of the method: as §1

HCC-366 = test system: HCC-366
Summary of the method: as §1

HCC-78 = test system: HCC-78
Summary of the method: as §1

HOP-62 = test system: HOP-62
Summary of the method: as §1

LC-2-ad = test system: LC-2-ad
Summary of the method: as §1

LCLC-97TM1 = test system: LCLC-97TM1
Summary of the method: as §1

LU99A = test system: LU99A
Summary of the method: as §1

LXF-289 = test system: LXF-289
Summary of the method: as §1

NCI-H1755 = test system: NCI-H1755
Summary of the method: as §1

NC(=O)Nc1cc(-c2cccc(F)c2)sc1C(=O)N[C@H]1CCCNC1 [AZD7762] + C[C@]1(O)C[C@@H](c2nc(-c3ccc4ccc(-c5ccccc5)nc4c3)c3c(N)nccn32)C1 [Linsitinib] (partner 1 µM)
relative viability (A-427; first compound 0.01 µM): 1.13
relative viability (A-427; first compound 0.03162 µM): 1.18
relative viability (A-427; first compound 0.1 µM): 1.22
relative viability (A-427; first compound 0.3162 µM): 1.13
relative viability (A-427; first compound 1 µM): 0.976
relative viability (COR-L 105; first compound 0.01 µM): 0.855
relative viability (COR-L 105; first compound 0.03162 µM): 0.921
relative viability (COR-L 105; first compound 0.1 µM): 0.748
relative viability (COR-L 105; first compound 0.3162 µM): 0.662
relative viability (COR-L 105; first compound 1 µM): 0.393
relative viability (EPLC-272H; first compound 0.01 µM): 1.15
relative viability (EPLC-272H; first compound 0.03162 µM): 1.28
relative viability (EPLC-272H; first compound 0.1 µM): 1.23
relative viability (EPLC-272H; first compound 0.3162 µM): 1.19
relative viability (EPLC-272H; first compound 1 µM): 0.871
relative viability (HCC-366; first compound 0.01 µM): 0.587
relative viability (HCC-366; first compound 0.03162 µM): 0.666
relative viability (HCC-366; first compound 0.1 µM): 0.607
relative viability (HCC-366; first compound 0.3162 µM): 0.255
relative viability (HCC-366; first compound 1 µM): 0.0442
relative viability (HCC-78; first compound 0.01 µM): 0.624
relative viability (HCC-78; first compound 0.03162 µM): 0.553
relative viability (HCC-78; first compound 0.1 µM): 0.581
relative viability (HCC-78; first compound 0.3162 µM): 0.519
relative viability (HCC-78; first compound 1 µM): 0.345
relative viability (HOP-62; first compound 0.01 µM): 1.04
relative viability (HOP-62; first compound 0.03162 µM): 1.09
relative viability (HOP-62; first compound 0.1 µM): 1.32
relative viability (HOP-62; first compound 0.3162 µM): 0.891
relative viability (HOP-62; first compound 1 µM): 0.987
relative viability (LC-2-ad; first compound 0.01 µM): 0.854
relative viability (LC-2-ad; first compound 0.03162 µM): 0.929
relative viability (LC-2-ad; first compound 0.1 µM): 0.787
relative viability (LC-2-ad; first compound 0.3162 µM): 0.674
relative viability (LC-2-ad; first compound 1 µM): 0.437
relative viability (LCLC-97TM1; first compound 0.01 µM): 0.179
relative viability (LCLC-97TM1; first compound 0.03162 µM): 0.209
relative viability (LCLC-97TM1; first compound 0.1 µM): 0.214
relative viability (LCLC-97TM1; first compound 0.3162 µM): 0.26
relative viability (LCLC-97TM1; first compound 1 µM): 0.189
relative viability (LU99A; first compound 0.01 µM): 0.612
relative viability (LU99A; first compound 0.03162 µM): 0.568
relative viability (LU99A; first compound 0.1 µM): 0.526
relative viability (LU99A; first compound 0.3162 µM): 0.432
relative viability (LU99A; first compound 1 µM): 0.397
relative viability (LXF-289; first compound 0.01 µM): 0.957
relative viability (LXF-289; first compound 0.03162 µM): 0.938
relative viability (LXF-289; first compound 0.1 µM): 1.01
relative viability (LXF-289; first compound 0.3162 µM): 1.03
relative viability (LXF-289; first compound 1 µM): 1.06
relative viability (NCI-H1755; first compound 0.01 µM): 1.03
relative viability (NCI-H1755; first compound 0.03162 µM): 1.06
